Results: PubChem BioAssay AID2060499 (Molecular Pharmacology Branch, DTP, NCI, 2025)

Test system: 777334-354-R2-J4-PDC tumor spheroids with HUVEC/MSC, viability
Experiment: Anticancer human tumor 777334-354-R2-J4-PDC patient-derived pancreatic adenocarcinoma cell line growth inhibition [GQUAD]
Settings: for IC50: curve of first compound; for viability, T/C: stronger effect = lower value
Text: DNA G-quadruplex Stabilizer Agents in Combinations in Complex Spheroids
A high-throughput screen of multi-cell type tumor spheroids was designed to identify active combinations of DNA G-quadruplex stabilizer agents and targeted small molecules. Complex spheroids include a stromal component modeled by human endothelial cells (HUVEC) and fibroblasts modeled by human mesenchymal stem cells (MSCs). The concentration ranges selected for each drug and investigational agent were based upon clinically achievable concentrations if the clinical Cmax of the agent was known.
Compounds. The drugs and investigational agents: pidnarulex (CX-5461; NSC782164), APTO-253 (NSC789042), BRACO-19 (NSC847499), peposertib (NSC802822), ceralasertib (NSC780249), elimusertib (NSC800525), camonsertib (NSC841442), AZD-1390 (NSC803789), olaparib (NSC753686), talazoparib (NSC767125), ART-558 (NSC835418), sotorasib (NSC818433), MRTX-1133 (NSC836407), SN-38 (NSC673596), topotecan (NSC609699), etoposide (NSC141540), doxorubicin (NSC123127), gemcitabine (NSC613327), 5-fluorouracil (NSC19893), paclitaxel (NSC125973), vemurafenib (NSC761431), panobinostat (NSC761190), R-306465 (JNJ-16241199; NSC773264), adavosertib (NSC754352), TP-3654 (NSC805149), carboplatin (NSC241240), KSQ-4279 (NSC840948), and staurosporine (NSC755774) were obtained from the National Cancer Institute (NCI) Developmental Therapeutics Program Chemical Repository (34). The FDA-approved anticancer drug set is available from the NCI Developmental Therapeutics Program. […] The stock solutions were prepared in dimethyl sulfoxide (DMSO, Sigma-Aldrich, St. Louis, MO, cat. D2650) at 800-fold the tested concentration and stored at -70 degrees C prior to their use. All drugs and investigational agents were tested over a range starting from a high concentration at or near the clinical Cmax and decreasing in half-log increments. If the clinical Cmax for an agent had not been determined, the highest concentration tested was 10 microM.
2.3 Cell Culture. All cells were maintained in an incubator at 37 degrees C and 5% CO2 with 95% humidity. The PDC lines were cultured according to standard operating procedures established by the NCI PDMR. All PDCs were thawed and cultured in Matrigel-coated flasks prepared with a working solution of 1X Ham's F-12 nutrient mix, without supplementation (Invitrogen, cat. 11765054), 100 U/mL penicillin-streptomycin (Invitrogen, cat. 15140122), and 2.5% Matrigel (Corning Inc., cat. 354248) for the first three passages. The 857933-349-R-J2-PDC line was cultured in 6C/Colon 1B media, which includes advanced DMEM/F-12 (Thermo Fisher Scientific, cat. 12634028), 10 mM HEPES (Thermo Fisher Scientific, cat. 15630080), 1X GlutaMAX supplement (Thermo Fisher Scientific, cat. 35050061), 0.1 mg/mL primocin (InvivoGen, cat. ant-pm-2), 10% defined fetal bovine serum, heat inactivated (HyClone Laboratories Inc., cat. SH30070.03HI), 50% L-WRN conditioned media (ATCC, cat. CRL-3276), 1.25 mM N-Acetyl-L-cysteine (Sigma-Aldrich, cat. A9165), 10 mM nicotinamide (Sigma-Aldrich, cat. N0636), 1X B-27 supplement (Thermo Fisher Scientific, cat. 17504044), 1X N-2 supplement (Thermo Fisher Scientific, cat. 17502048), 10 microM Y-27632 dihydrochloride (Tocris Bioscience, cat. 1254), and 50 ng/mL human EGF recombinant protein (Thermo Fisher Scientific, cat. PHG0311). The 485176-168-R4-J1-PDC line was cultured in Panc media, which includes all 6C/Colon 1B media components plus 100 ng/mL human FGF-10 (Thermo Fisher Scientific, cat. 100-26), 500 nM SB-431542 (Selleckchem, cat. S1067), and gastrin (Tocris, cat. 3006).
[…]

[1] = second compound 0.0316 µM, first compound 0.0316 µM
[2] = second compound 0.0316 µM, first compound 0.1 µM
[3] = second compound 0.0316 µM, first compound 0.316 µM
[4] = second compound 0.0316 µM, first compound 1 µM
[5] = second compound 0.0316 µM, first compound 3.16 µM
[6] = second compound 0.0316 µM, first compound 10 µM
[7] = second compound 0.1 µM, first compound 0.0316 µM
[8] = second compound 0.1 µM, first compound 0.1 µM
[9] = second compound 0.1 µM, first compound 0.316 µM
[10] = second compound 0.1 µM, first compound 1 µM
[11] = second compound 0.1 µM, first compound 3.16 µM
[12] = second compound 0.1 µM, first compound 10 µM
[13] = second compound 0.316 µM, first compound 0.0316 µM
[14] = second compound 0.316 µM, first compound 0.1 µM
[15] = second compound 0.316 µM, first compound 0.316 µM
[16] = second compound 0.316 µM, first compound 1 µM
[17] = second compound 0.316 µM, first compound 3.16 µM
[18] = second compound 0.316 µM, first compound 10 µM
[19] = second compound 1 µM, first compound 0.0316 µM
[20] = second compound 1 µM, first compound 0.1 µM
[21] = second compound 1 µM, first compound 0.316 µM
[22] = second compound 1 µM, first compound 1 µM
[23] = second compound 1 µM, first compound 3.16 µM
[24] = second compound 1 µM, first compound 10 µM
[25] = second compound 3.16 µM, first compound 0.0316 µM
[26] = second compound 3.16 µM, first compound 0.1 µM
[27] = second compound 3.16 µM, first compound 0.316 µM
[28] = second compound 3.16 µM, first compound 1 µM
[29] = second compound 3.16 µM, first compound 3.16 µM
[30] = second compound 3.16 µM, first compound 10 µM
[31] = second compound 10 µM, first compound 0.0316 µM
[32] = second compound 10 µM, first compound 0.1 µM
[33] = second compound 10 µM, first compound 0.316 µM
[34] = second compound 10 µM, first compound 1 µM
[35] = second compound 10 µM, first compound 3.16 µM
[36] = second compound 10 µM, first compound 10 µM
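Further: spheroids exposed to compounds for 7 days before readout.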

COc1cc(C2c3cc4c(cc3C(OC3OC5COC(C)OC5C(O)C3O)C3COC(=O)C23)OCO4)cc(OC)c1O (centres undefined) + Cc1cnc(CNC(=O)c2c(=O)c3ccc(N4CCCN(C)CC4)nc3n3c2sc2ccccc23)cn1
IC50 (second compound 0.0316 µM): 6.18 µM
IC50 (second compound 0.1 µM): 4.44 µM
IC50 (second compound 0.316 µM): 3.71 µM
IC50 (second compound 1 µM): 5.14 µM
IC50 (second compound 3.16 µM): 2.49 µM
IC50 (second compound 10 µM): 2.91 µM
viability, T/C [1]: 94.8%
viability, T/C [2]: 90.6%
viability, T/C [3]: 85.2%
viability, T/C [4]: 70.9%
viability, T/C [5]: 54.7%
viability, T/C [6]: 46.6%
viability, T/C [7]: 84.6%
viability, T/C [8]: 78.5%
viability, T/C [9]: 79.6%
viability, T/C [10]: 73.4%
viability, T/C [11]: 56.1%
viability, T/C [12]: 34.9%
viability, T/C [13]: 79.3%
viability, T/C [14]: 85%
viability, T/C [15]: 77%
viability, T/C [16]: 72.7%
viability, T/C [17]: 51.4%
viability, T/C [18]: 39.7%
viability, T/C [19]: 68.4%
viability, T/C [20]: 75.2%
viability, T/C [21]: 76.1%
viability, T/C [22]: 64%
viability, T/C [23]: 60%
viability, T/C [24]: 37.5%
viability, T/C [25]: 57.1%
viability, T/C [26]: 64.5%
viability, T/C [27]: 61.6%
viability, T/C [28]: 61.1%
viability, T/C [29]: 47.1%
viability, T/C [30]: 40.7%
viability, T/C [31]: 58.6%
viability, T/C [32]: 57.3%
viability, T/C [33]: 55.2%
viability, T/C [34]: 52%
viability, T/C [35]: 51.5%
viability, T/C [36]: 34.7%

CC1COCCN1c1cc(C2(S(C)(=N)=O)CC2)nc(-c2ccnc3[nH]ccc23)n1 (centres undefined) + CN(C)c1ccc(Nc2c3ccc(NC(=O)CCN4CCCC4)cc3nc3cc(NC(=O)CCN4CCCC4)ccc23)cc1
IC50 (second compound 0.0316 µM): > 10 µM
IC50 (second compound 0.1 µM): > 10 µM
IC50 (second compound 0.316 µM): > 10 µM
IC50 (second compound 1 µM): 8.96 µM
IC50 (second compound 3.16 µM): 7.8 µM
IC50 (second compound 10 µM): 8.89 µM
viability, T/C [1]: 89%
viability, T/C [2]: 85.8%
viability, T/C [3]: 98.5%
viability, T/C [4]: 86.8%
viability, T/C [5]: 79.3%
viability, T/C [6]: 58.3%
viability, T/C [7]: 107%
viability, T/C [8]: 84.6%
viability, T/C [9]: 98.2%
viability, T/C [10]: 95.2%
viability, T/C [11]: 79.7%
viability, T/C [12]: 57.1%
viability, T/C [13]: 92.5%
viability, T/C [14]: 95.9%
viability, T/C [15]: 100%
viability, T/C [16]: 82.9%
viability, T/C [17]: 85.2%
viability, T/C [18]: 50.5%
viability, T/C [19]: 90.5%
viability, T/C [20]: 79.8%
viability, T/C [21]: 74.7%
viability, T/C [22]: 83.9%
viability, T/C [23]: 79.5%
viability, T/C [24]: 46.9%
viability, T/C [25]: 80.5%
viability, T/C [26]: 82.6%
viability, T/C [27]: 86.8%
viability, T/C [28]: 78.6%
viability, T/C [29]: 67.7%
viability, T/C [30]: 45.1%
viability, T/C [31]: 82.3%
viability, T/C [32]: 78.3%
viability, T/C [33]: 72.7%
viability, T/C [34]: 67.7%
viability, T/C [35]: 65.2%
viability, T/C [36]: 47.5%
